ChEMBL document CHEMBL4507265 (2021)

Tests used:
[1] = target: Serine/threonine-protein kinase Nek9 (Homo sapiens) (UniProt Q8TD19); settings: Compound concentration 1000.0 nM
[2] = target: Histamine H3 receptor (Homo sapiens) (UniProt Q9Y5N1); settings: Compound concentration 10.0 uM
[3] = target: Serine/threonine-protein kinase Nek4 (Homo sapiens) (UniProt P51957); settings: Compound concentration 1000.0 nM
[4] = target: Mitogen-activated protein kinase kinase kinase kinase 1 (Homo sapiens) (UniProt Q92918); settings: Compound concentration 1000.0 nM
[5] = target: Beta-2 adrenergic receptor (Homo sapiens) (UniProt P07550); settings: Compound concentration 10.0 uM
[6] = target: Glutamate NMDA receptor (Rattus norvegicus) (UniProt P35439+Q00959+Q00960+Q00961+Q62645+Q8VHN2+Q9R1M7); settings: Compound concentration 10.0 uM
[7] = target: Adenosine receptor A2a (Homo sapiens) (UniProt P29274); settings: Compound concentration 10.0 uM
[8] = target: Sigma non-opioid intracellular receptor 1 (Homo sapiens) (UniProt Q99720); assay: Inhibition of Sigma 1 at 10 µM in the Eurofins-Panlabs radioligand binding assay (Eurofins_assay_278110); parameters: ligand concentration 8 nM; settings: Compound concentration 10.0 uM
Chain of Sigma non-opioid intracellular receptor 1 (Homo sapiens) (Q99720 whole entry): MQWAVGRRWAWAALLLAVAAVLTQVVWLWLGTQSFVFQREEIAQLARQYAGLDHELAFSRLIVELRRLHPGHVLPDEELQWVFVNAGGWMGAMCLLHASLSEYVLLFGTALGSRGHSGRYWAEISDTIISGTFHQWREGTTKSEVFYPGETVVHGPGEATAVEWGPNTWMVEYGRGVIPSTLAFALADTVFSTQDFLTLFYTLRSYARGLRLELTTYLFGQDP

[9] = target: Beta-1 adrenergic receptor (Homo sapiens) (UniProt P08588); settings: Compound concentration 10.0 uM
[10] = test system: Tyrosine-protein kinase ABL1 (Homo sapiens), P00519 [F317L]; settings: Compound concentration 1000.0 nM
Chain of Tyrosine-protein kinase ABL1 (Homo sapiens), P00519 [F317L] (P00519 whole entry F317L): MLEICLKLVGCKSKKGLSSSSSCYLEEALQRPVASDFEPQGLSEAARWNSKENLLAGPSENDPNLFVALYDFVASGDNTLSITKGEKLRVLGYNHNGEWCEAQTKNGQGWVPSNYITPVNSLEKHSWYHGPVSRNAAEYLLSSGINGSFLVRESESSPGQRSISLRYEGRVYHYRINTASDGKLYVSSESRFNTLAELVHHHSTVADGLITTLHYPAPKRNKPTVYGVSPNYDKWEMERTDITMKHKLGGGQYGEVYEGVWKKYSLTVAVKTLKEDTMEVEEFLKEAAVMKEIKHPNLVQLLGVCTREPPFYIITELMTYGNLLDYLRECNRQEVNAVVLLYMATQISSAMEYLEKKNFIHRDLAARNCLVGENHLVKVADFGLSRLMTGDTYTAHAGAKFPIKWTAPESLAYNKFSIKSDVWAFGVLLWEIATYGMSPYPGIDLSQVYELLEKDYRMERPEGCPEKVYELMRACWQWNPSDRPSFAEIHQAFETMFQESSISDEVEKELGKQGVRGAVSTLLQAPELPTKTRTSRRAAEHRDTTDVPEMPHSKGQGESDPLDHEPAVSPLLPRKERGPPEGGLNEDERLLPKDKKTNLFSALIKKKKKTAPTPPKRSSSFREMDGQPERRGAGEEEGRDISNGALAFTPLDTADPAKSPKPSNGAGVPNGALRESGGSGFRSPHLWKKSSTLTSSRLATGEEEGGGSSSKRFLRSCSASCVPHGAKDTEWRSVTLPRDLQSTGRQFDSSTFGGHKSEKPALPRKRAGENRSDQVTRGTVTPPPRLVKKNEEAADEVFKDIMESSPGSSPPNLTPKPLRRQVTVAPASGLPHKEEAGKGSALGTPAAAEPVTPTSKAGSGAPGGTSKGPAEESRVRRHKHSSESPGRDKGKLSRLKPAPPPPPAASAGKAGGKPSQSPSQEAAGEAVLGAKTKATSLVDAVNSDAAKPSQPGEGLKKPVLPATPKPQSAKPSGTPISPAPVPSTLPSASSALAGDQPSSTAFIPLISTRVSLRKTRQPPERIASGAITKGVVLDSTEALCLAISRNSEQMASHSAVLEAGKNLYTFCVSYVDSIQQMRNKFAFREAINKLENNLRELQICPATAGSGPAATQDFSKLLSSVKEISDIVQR

[11] = target: Prostaglandin E2 receptor EP4 subtype (Homo sapiens) (UniProt P35408); assay: Inhibition of Prostanoid EP4 at 10 µM in the Eurofins-Panlabs radioligand binding assay (Eurofins_assay_268420); parameters: ligand concentration 1 nM; settings: Compound concentration 10.0 uM
[12] = target: Epidermal growth factor receptor (Homo sapiens) (UniProt P00533); assay: Inhibition of Epidermal Growth Factor (EGF) at 10 µM in the Eurofins-Panlabs radioligand binding assay (Eurofins_assay_225510); settings: Compound concentration 10.0 uM
[13] = target: voltage-gated sodium channel, site 2 (Rattus norvegicus, UniProt F1LQQ7+O08562+O88420+O88457+P04774+P04775+P08104+P15389+P15390+Q62968); assay: Inhibition of Sodium Channel, Site 2 at 10 µM in the Eurofins-Panlabs radioligand binding assay (Eurofins_assay_279510); type: protein assay; parameters: ligand concentration 5 nM, non-specific ligand with concentration 100 µM Veratridine, incubation time 60 min, incubation temperature 37 °C; settings: male, Wistar, rat whole brain (except cerebellum) membranes, probe [3H] Batrachotoxinin, 5 nM, compound concentration 10 uM
hERG (KCNH2) = hERG (KCNH2) (Homo sapiens, UniProt Q12809); assay: Inhibition of Potassium Channel hERG at 10 µM in the Eurofins-Panlabs radioligand binding assay (Eurofins_assay_265900); parameters: ligand concentration 1.5 nM, non-specific ligand with concentration Astemizole, incubation time 60 min, incubation temperature 25 °C; settings: HEK-293 cells that express recombinant human hERG, probe [3H] Astemizole, 1.5 nM, compound concentration 10 uM
[14] = target: Alpha-1B adrenergic receptor (Homo sapiens) (UniProt P35368); settings: Compound concentration 10.0 uM
Chain of Alpha-1B adrenergic receptor (Homo sapiens) (P35368 whole entry): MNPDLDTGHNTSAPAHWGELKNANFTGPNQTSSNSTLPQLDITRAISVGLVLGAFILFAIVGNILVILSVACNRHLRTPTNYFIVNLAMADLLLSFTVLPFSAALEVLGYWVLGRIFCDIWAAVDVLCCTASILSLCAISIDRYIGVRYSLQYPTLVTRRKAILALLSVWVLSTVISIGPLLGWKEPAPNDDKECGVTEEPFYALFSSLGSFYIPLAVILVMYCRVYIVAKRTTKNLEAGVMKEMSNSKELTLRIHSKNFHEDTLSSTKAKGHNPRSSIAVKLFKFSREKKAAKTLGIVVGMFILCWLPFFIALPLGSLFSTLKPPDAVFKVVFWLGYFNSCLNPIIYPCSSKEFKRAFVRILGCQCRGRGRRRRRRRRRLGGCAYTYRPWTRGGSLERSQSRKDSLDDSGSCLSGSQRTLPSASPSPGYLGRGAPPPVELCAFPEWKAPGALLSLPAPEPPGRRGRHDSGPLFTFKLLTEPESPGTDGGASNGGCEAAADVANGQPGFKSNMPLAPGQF

[15] = target: 5-hydroxytryptamine receptor 2C (Homo sapiens, UniProt P28335); assay: GPCRScan assay: inhibition of 5-HT2C; parameters: radioligand conc. used [nm] 1.0 – 2.5, parental cells HEK T
Chain of 5-hydroxytryptamine receptor 2C (P28335 whole entry): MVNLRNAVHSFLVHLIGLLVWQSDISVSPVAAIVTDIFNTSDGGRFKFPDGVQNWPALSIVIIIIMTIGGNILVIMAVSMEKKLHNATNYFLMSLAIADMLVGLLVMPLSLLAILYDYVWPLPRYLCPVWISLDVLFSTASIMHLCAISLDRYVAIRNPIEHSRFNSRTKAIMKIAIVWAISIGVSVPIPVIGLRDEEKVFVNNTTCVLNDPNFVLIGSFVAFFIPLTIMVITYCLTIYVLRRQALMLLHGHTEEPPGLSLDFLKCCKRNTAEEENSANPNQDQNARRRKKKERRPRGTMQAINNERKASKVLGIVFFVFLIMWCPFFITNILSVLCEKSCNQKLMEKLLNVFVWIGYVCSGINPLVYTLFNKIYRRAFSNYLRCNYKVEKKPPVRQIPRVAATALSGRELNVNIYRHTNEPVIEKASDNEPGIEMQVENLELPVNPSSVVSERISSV

Rattus norvegicus = species: Rattus norvegicus; assay: Inhibition of Thyroid Hormone at 10 µM in the Eurofins-Panlabs radioligand binding assay (Eurofins_assay_285900); type: protein assay; settings: Compound concentration 10.0 uM
[16] = target: Myosin-IIIa (Homo sapiens) (UniProt Q8NEV4); settings: Compound concentration 1000.0 nM
Chain of Myosin-IIIa (Homo sapiens) (Q8NEV4 whole entry): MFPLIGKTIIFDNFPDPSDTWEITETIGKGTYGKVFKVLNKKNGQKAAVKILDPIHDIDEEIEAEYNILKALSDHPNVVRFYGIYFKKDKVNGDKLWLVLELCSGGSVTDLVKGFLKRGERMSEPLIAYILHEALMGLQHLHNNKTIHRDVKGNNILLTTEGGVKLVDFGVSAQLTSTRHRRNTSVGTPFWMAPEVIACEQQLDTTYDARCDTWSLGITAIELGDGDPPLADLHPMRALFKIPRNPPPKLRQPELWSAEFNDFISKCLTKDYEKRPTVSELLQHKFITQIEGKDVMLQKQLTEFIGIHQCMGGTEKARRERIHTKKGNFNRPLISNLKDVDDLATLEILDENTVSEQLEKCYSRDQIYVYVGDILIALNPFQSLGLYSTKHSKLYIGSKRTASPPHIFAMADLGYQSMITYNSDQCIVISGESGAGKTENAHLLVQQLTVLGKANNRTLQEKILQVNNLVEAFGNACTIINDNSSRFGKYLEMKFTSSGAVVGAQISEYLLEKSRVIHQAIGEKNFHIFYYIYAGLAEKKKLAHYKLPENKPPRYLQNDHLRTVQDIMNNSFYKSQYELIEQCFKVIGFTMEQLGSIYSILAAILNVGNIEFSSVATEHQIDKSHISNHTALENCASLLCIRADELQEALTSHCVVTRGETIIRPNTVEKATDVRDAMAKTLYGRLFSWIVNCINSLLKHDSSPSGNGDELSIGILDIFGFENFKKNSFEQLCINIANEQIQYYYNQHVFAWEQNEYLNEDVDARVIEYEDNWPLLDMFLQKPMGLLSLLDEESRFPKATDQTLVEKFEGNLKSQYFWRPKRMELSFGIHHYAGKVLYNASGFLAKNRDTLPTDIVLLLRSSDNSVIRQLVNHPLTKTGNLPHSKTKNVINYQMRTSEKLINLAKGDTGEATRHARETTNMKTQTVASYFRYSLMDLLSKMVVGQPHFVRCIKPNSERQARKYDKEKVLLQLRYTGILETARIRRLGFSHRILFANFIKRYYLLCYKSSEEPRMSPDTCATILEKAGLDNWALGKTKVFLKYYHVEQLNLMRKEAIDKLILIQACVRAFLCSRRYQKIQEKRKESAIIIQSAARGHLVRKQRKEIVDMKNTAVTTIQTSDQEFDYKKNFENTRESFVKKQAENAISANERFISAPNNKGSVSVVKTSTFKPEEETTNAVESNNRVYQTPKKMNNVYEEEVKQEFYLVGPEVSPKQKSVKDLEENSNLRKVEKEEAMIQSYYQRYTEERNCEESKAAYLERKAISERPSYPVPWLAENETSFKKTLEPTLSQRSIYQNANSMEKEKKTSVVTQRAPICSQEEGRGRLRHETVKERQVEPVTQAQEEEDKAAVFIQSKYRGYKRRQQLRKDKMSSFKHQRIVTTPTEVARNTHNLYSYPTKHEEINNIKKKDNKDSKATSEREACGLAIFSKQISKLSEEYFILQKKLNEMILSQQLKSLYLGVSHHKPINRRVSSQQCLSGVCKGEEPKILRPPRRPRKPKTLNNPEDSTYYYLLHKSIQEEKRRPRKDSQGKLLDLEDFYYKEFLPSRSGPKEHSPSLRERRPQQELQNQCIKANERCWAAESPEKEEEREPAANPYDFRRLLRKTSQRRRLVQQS

[17] = target: Mu-type opioid receptor (Homo sapiens) (UniProt P35372); settings: Compound concentration 10.0 uM
[18] = target: Sodium-dependent noradrenaline transporter (Homo sapiens) (UniProt P23975); settings: Compound concentration 10.0 uM
[19] = target: T1, 5-hydroxytryptamine receptor 1A (Homo sapiens) (UniProt P08908); settings: Compound concentration 10.0 uM
T1 sequence (whole entry): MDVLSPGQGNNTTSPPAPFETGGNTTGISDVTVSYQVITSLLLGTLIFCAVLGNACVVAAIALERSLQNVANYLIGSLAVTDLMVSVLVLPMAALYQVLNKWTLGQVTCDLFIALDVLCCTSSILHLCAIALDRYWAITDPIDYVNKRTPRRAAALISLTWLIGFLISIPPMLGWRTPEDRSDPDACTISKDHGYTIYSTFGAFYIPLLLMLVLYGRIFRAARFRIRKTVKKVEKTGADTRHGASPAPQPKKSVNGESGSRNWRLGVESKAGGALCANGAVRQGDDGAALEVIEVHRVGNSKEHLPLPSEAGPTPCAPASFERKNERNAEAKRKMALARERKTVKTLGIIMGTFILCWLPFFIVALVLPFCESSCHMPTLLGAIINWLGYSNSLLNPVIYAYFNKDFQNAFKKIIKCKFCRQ

[20] = target: Platelet-activating factor receptor (Homo sapiens) (UniProt P25105); assay: Inhibition of Platelet Activating Factor (PAF) at 10 µM in the Eurofins-Panlabs radioligand binding assay (Eurofins_assay_265010); settings: Compound concentration 10.0 uM
[21] = target: Glucocorticoid receptor (Homo sapiens) (UniProt P04150); assay: Glucocorticoid Eurofins-Panlabs radioligand binding assay; settings: Compound concentration 10.0 uM
Mus musculus = species: Mus musculus; assay: Inhibition of Interleukin IL-1 at 10 µM in the Eurofins-Panlabs radioligand binding assay (Eurofins_assay_243520); parameters: ligand concentration 0.1 nM; settings: Compound concentration 10.0 uM
[22] = target: Endothelin-1 receptor (Homo sapiens) (UniProt P25101); settings: Compound concentration 10.0 uM
[23] = target: Histamine H1 receptor (Homo sapiens) (UniProt P35367); settings: Compound concentration 10.0 uM
[24] = target: 5-hydroxytryptamine receptor 1E (Homo sapiens) (UniProt P28566); settings: Compound concentration 10.0 uM
[25] = test system: Epidermal growth factor receptor (Homo sapiens), P00533 [UNDEFINED MUTATION]; settings: Compound concentration 1000.0 nM
[26] = target: Mitotic checkpoint serine/threonine-protein kinase BUB1 (Homo sapiens) (UniProt O43683); settings: Compound concentration 1000.0 nM

Chain of Serine/threonine-protein kinase Nek9 (Homo sapiens) (Q8TD19 whole entry): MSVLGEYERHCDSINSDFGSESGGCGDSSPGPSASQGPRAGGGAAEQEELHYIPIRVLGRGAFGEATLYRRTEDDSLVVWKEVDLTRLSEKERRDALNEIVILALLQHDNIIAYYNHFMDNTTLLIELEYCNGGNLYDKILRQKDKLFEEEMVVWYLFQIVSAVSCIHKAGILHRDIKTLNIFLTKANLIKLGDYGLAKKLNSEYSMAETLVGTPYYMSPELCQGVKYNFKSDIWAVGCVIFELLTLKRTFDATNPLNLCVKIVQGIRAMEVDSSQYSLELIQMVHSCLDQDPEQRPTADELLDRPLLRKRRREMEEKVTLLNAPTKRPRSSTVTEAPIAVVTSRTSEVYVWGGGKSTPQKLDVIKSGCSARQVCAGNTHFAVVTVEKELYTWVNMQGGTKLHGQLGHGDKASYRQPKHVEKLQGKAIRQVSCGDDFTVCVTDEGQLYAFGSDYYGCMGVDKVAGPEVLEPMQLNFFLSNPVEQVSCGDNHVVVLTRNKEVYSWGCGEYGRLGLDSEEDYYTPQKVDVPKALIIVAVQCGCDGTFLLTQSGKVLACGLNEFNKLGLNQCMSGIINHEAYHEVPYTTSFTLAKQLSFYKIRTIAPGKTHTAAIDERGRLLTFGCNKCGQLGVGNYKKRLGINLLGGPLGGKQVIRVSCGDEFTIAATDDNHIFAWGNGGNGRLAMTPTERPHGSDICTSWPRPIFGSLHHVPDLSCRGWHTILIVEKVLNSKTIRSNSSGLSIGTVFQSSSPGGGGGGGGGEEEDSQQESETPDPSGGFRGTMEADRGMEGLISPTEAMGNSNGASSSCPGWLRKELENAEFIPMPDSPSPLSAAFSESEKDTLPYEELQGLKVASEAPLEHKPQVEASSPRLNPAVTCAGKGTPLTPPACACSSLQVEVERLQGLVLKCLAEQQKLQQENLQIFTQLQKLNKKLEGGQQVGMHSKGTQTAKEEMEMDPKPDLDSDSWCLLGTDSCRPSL

For `NS(=O)(=O)c1cc(NC(=O)Cc2ccccc2)ccc1Oc1cccc(Cl)c1` [BAY-1797], the residual activity [1] was 83%, the inhibition [2] was 0% and the residual activity [3] was 98%. The residual activity [4] was 91%, the inhibition [5] was 2% and the inhibition [6] was 23%. The inhibition [7] was 14%, the inhibition [8] was 3% and the inhibition [9] was 3%. The residual activity [10] was 57%, the inhibition [11] was 21% and the inhibition [12] was 2%. The inhibition at 60 min, 10 µM [13] was 57%, the inhibition at 60 min, 10 µM (hERG (KCNH2)) was 8% (not active) and the inhibition [14] was -0.38%. It also gave a Ki ([15]; read-out: Ki) of 6.52 µM, a Ki ([15]; read-out: pKi (converted)) of 5.89 µM and an inhibition (Rattus norvegicus) of 2%. It also gave a residual activity [16] of 100%, an inhibition [17] of 9% and an inhibition [18] of 47%. The inhibition [19] was -1.77%, the inhibition [20] was -2% and the inhibition [21] was 20%. For the same compound, the inhibition (Mus musculus) was 24%, the inhibition [22] was 3% and the inhibition [23] was 15%.
Compound `NS(=O)(=O)c1cc(NC(=O)C2(c3ccccc3Cl)CC2)ccc1Oc1cccc(Cl)c1` [BAY-207] has a residual activity [1] of 94%, a residual activity [3] of 100% and a residual activity [4] of 66%. For the same compound, the inhibition [24] was -1.46%, the residual activity [10] was 88% and the inhibition [14] was -8.97%. The residual activity [25] was 75%, the residual activity [16] was 93% and the inhibition [19] was 4.89%. For the same compound, the residual activity [26] was 95%.
